Experimental data as given in patent US20060063736A1, “Compositions and methods for inhibiting mucin-type O-linked glycosylation” (priority 2004, published 2006).

Assays:
Jurkat cells = assay: Con A staining of N-linked glycans on Jurkat cells, flow cytometry; assay type: cell-based, human; conditions: 2 d treatment
Description: Jurkat cells were seeded at 250,000 cells/well (determined by Coulter cell counter) in 12-well polystyrene tissue culture plates in 1.0 mL of media and treated with various concentrations of 1-68A or 2-68A from 50 mM dimethyl sulfoxide (DMSO) stock solutions or doxorubicin or campothecin from 1 mM DMSO stock solutions. After 2 d, cells were harvested, washed twice with PBS buffer (PBS, pH 7.4, 0.1% FCS, 0.1% NaN3 w/v) and stained with FITC-HPA (1 μg/mL) or FITC-Con A (5 μg/mL with 1 mM CaCl2) in PBS, pH 7.4 in the dark for 1 h at 4° C. Cells were washed twice with PBS buffer, resuspended in 300 μL of PBS buffer and analyzed by flow cytometry (FacsCaliber, BD Instruments). Annexin-V staining was performed according to the manufacturer's protocols (Invitrogen).
To directly monitor ppGalNAcT activities in cells, Jurkat cells (human T-cell lymphoma), which are known to produce only the Tn-antigen (FIG. 1) as their O-linked glycans, were chosen. Piller et al. (1990) J. Biol. Chem. 265:9264-9271. Changes in Tn-antigen expression on the surface of Jurkat cells were monitored by HPA binding followed by flow cytometry analysis. Con A staining of N-linked glycans was used as a control for non-specific inhibition of protein glycosylation. Baenziger and Fiete (1979) J. Biol. Chem. 254:2400-2407.

mppGalNAcT-11 = biological target: T1, mppGalNAcT-11 (Mus musculus, UniProt Q921L8); assay: ELLA for ppGalNAcTs, mppGalNAcT-11; assay type: biochemical, murine; conditions: 20 μM UDP-GalNAc, 50 μM EA2 peptide 4
T1 construct: plasmids encoding truncated secreted ppGalNAcTs-1 to −5, -7, -10 and -11; made in house; host or cells: COS-7
T1 sequence (Q921L8 30-608 limits assumed): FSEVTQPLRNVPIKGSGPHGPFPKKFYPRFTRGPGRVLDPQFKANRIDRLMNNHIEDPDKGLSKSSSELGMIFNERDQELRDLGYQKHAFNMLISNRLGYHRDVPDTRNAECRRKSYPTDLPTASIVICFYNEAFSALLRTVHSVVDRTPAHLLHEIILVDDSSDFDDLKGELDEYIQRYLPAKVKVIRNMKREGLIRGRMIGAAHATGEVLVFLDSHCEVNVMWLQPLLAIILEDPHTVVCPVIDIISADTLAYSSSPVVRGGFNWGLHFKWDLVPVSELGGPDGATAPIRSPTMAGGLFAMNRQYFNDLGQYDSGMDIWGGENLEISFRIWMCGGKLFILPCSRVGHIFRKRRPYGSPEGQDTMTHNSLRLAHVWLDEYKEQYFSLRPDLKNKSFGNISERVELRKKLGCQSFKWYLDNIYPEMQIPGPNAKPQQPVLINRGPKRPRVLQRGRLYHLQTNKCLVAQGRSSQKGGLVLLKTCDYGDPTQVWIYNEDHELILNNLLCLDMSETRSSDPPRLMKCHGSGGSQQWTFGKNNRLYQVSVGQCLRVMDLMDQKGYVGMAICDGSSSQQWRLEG
Description: COS-7 cells were transiently transfected with plasmids encoding truncated secreted ppGalNAcTs-1 to −5, -7, -10 and -11 as previously described. Hagen et al. (1997) J. Biol. Chem. 272:13843-13848. The crude conditioned medium was used as the enzyme source.
Standard reaction conditions for ppGalNAcT assays were as follows. The reaction mixture contained the following components in a final volume of 25 μL: 10 mM MnCl2, 40 mM sodium cacodylate, 40 mM β-mercaptoethanol, 0.1% Triton X-100, pH 6.5, 5 μL of conditioned media, and various concentrations of EA2 peptide 4, UDP-GalNAc and inhibitor. All uridine-based compounds were dissolved in dimethyl sulfoxide (DMSO). […] Reaction rates were linear over the period monitored (20-30 min).
96-Well NeutrAvidin-coated plates were prewashed 3 times with 200 μL of wash buffer (25 mM Tris, 150 mM NaCl, 0.1% bovine serum albumin (BSA) (w/v), and 0.05% Tween (v/v), pH 7.2). […] After 3 washes with 200 μL of PBS, bound HPA-HRP was quantified by the addition of 100 μL of TMB peroxide solution. […] HRP activity was terminated by the addition of 50 μL of 2 N H2SO4 and the resulting solution was analyzed at 450 nm using a UV/Vis microtiter plate reader. The amount of product generated by the ppGalNAcT was extrapolated from absorbance values using an equation fit to the standard curve derived from Origin 6.1 software.

O=c1ccn([C@@H]2O[C@H](CON=Cc3ccc(O)c(O)c3O)[C@@H](O)[C@H]2O)c(=O)[nH]1 [1-68A]
effect on Con A staining (Jurkat cells): no significant effect | IC50 (mppGalNAcT-11): 39 ± 3 µM

O=C(CON=Cc1ccc(O)c(O)c1O)NC[C@H]1O[C@@H](n2ccc(=O)[nH]c2=O)[C@H](O)[C@@H]1O [2-68A]
effect on Con A staining (Jurkat cells): no significant effect | IC50 (mppGalNAcT-11): 32 ± 3 µM
